Laboratory results reported in PMC9227171 (Life, 2022).
Where “and” joins values, the source holds several entries; their conditions need not be identical. Equal values may be shown once.

How the values were obtained:
[1] = target: protein synthesis in rabbit reticulocyte lysates; experiment: Inhibition of protein synthesis in rabbit reticulocyte lysates (luciferase mRNA, luminescence); assay type: biochemical; conditions: for EC50: luciferase mRNA, 30 °C, 90 min, read-out: EC50 (50% inhibitory concentration); for impact on protein synthesis: concentration range extending to 50 μM; for inhibition of translation: at 100 μM
Experimental: The dose–response change in chemoluminescense monitored in the presence of various concentrations of investigational drugs following addition of luciferin allows comparison across compounds.
Assay conditions were employed as recommended by the manufacturer. In summary, reactions (20 μL) contained 80% TNT Quick master mix, 20 µM methionine, and 40 ng/µL luciferase RNA (Promega; L4561) at the indicated concentration of test chemicals. Samples were incubated at 30 °C for 90 min and diluted ten-fold with PBS. An aliquot (2 μL) was mixed with 20 μL of luciferase assay reagent (Promega; E1500) and luminescence was measured with a Turner Designs Model TD-20/20 Luminometer. Depending on the compound evaluated, experiments were repeated two-four times with good agreement between the runs. […] The results are reported as average values including the mean and standard deviation wherever applicable.

[2] = tested on: protein synthesis in Vero E6 cells; experiment: Protein synthesis in cultured cells: puromycin pulse labeling and immunoblotting; assay type: cell-based, African green monkey
Experimental: Prior to the experiment, Vero E6 cells were seeded at 30,000 cells per cm^2 in 6-well plates in 5% FBS-EMEM. […] Control experiments were conducted in the absence and presence of cycloheximide (1–150 μM) or DMSO. Following incubation with puromycin for 10 min, the medium was quickly removed and cells washed with warm PBS and allowed to recover in drug-free 5% FBS-EMEM for 30 min. Cell pellets collected by trypsinization and centrifugation were stored at −80 °C while awaiting protein preparation and immunoblotting as described below.
Cell lysates were prepared in RIPA (radio-immunoprecipitation) buffer (Sigma; R0278) containing protease inhibitors (Sigma; P8340). Protein concentrations were determined via the Pierce^TM bicinconinic acid (BCA) assay (Thermo Fisher Scientific, Waltham, MA, USA) using bovine serum albumin as a standard. All procedures were performed in accordance with protocols recommended by the manufacturers. For immunoblotting, 8 μg of protein was combined with Laemmli buffer containing 10% β-mercaptoethanol, heated at 95 °C for 5 min and loaded on 8–16% Mini-PROTEAN® TGX™ precast protein gels. Samples were resolved via electrophoresis in Tris-Gly-SDS buffer and transferred to nitrocellulose membranes in Tris-Gly buffer containing 20% methanol at 4–6 V/cm^2 for one hour. Membranes were blocked in 10 mM sodium phosphate buffer containing 150 mM NaCl (pH 7.8), 5% milk and 0.1% TWEEN20 (PBST) at room temperature for at least one hour, then incubated overnight with primary anti-puromycin antibodies (TFS; MABE343 mouse monoclonal antibodies clone 12D10; 1:25,000) at 4 °C. […]
For β-actin staining, the same membranes used for puromycin immunostaining were washed four times for five min with 20 mM Tris-buffered saline containing 500 mM sodium chloride (pH 7.5) and 0.1% TWEEN20 (TBST) and stripped by two rounds of 20- and 10-min washes at 50 °C in glycine buffer (pH 2.2) containing 0.1% SDS (w/v) and 1% TWEEN20. […] The results were quantified with Image J 1.52a software using β-actin staining for each sample as an internal reference.

HIV-1 = conditions: among low molecular weight ATA components ref 39, 43; cited from earlier work
[3] = target: SARS-CoV-2 RdRp (nsp12/7/8 complex) (Severe acute respiratory syndrome coronavirus 2, UniProt P0DTD1); experiment: Inhibition of SARS-CoV-2 RdRp active complex (RNA extension assay); assay type: biochemical; conditions: RdRp-mediated RNA replication, 37 °C, 60 min, 1 μM RdRp complex
hCoV-OC43 = experiment: Antiviral properties in hCoV-OC43 and VERO E6 cells (data not shown); assay type: cell-based; conditions: concentrations ≥200 μM
yeast 80S ribosomes = experiment: Ligand–ribosome binding via fluorescence anisotropy
[4] = target: T1, human serum albumin (HSA) (Homo sapiens, UniProt P02768); experiment: HSA binding energetics via isothermal titration calorimetry (ITC); conditions: for TΔS / ΔG / ΔH: pH 7.4
T1 construct: purchased Millipore Sigma A1887
T1 sequence (P02768 25-609): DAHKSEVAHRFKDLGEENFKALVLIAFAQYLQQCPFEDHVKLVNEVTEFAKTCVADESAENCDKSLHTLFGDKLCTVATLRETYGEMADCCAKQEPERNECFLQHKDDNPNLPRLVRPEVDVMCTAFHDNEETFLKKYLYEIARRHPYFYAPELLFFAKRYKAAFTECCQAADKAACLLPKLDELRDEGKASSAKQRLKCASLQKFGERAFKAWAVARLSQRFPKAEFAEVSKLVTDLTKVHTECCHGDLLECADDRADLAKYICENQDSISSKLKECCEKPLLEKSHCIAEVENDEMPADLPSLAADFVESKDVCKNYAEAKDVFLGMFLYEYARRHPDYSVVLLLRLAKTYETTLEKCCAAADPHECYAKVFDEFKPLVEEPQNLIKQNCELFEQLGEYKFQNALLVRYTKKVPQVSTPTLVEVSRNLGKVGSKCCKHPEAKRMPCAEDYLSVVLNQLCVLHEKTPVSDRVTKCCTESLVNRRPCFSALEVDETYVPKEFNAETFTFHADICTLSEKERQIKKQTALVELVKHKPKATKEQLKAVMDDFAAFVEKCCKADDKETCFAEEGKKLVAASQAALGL
Experimental: The resultant heats are integrated to yield a binding profile (bottom panel) that is fit via nonlinear least squares analysis to a single site model (red line).
The protein was prepared as described in Section 5.1 and dialyzed exhaustively against a buffer comprised of 10 mM sodium phosphate adjusted to pH 7.4. […] Each ITC experiment consisted of thirty consecutive 10.0 µL injections during which the reaction heat is monitored and integrated over a 5.0 min period under continuous stirring. The experimental protocol has been designed to ensure that there is a tenfold excess of ligand in the titration syringe relative to standard protein concentration in the sample cell. The resultant binding isotherms are generated by recording the integrated reaction heats normalized for ligand concentration versus the HSA:ligand ratio. A nonlinear least squares fit of the resultant profile to a single site binding model yields thermodynamic parameters for the HSA–ligand complex including the affinity (Ka), Gibbs free energy (ΔG), enthalpy (ΔH), and entropy (ΔS).

[5] = ITC, 25.0 °C, listed as Dichlorohexamer

Structure (SMILES): C[C@@H]1C[C@@H]([C@H](O)CC2CC(=O)NC(=O)C2)C(=O)[C@@H](C)C1 [Cycloheximide]
- EC50 [1]: 0.106 µM
- activity at 150 µM ([2]; Chlorocebus sabaeus, Vero C1008, 150 uM, read-out: % activity (anti-puromycin/b-actin densitometry)): -3.99%
- activity at 300 µM ([2]; Chlorocebus sabaeus, Vero C1008, 300 uM, read-out: % activity (anti-puromycin/b-actin densitometry)): -3.95%
- concentration that inhibits protein synthesis ([2]; puromycin labeling): 1 µM

Structure (SMILES): O=C(O)c1cc(Cc2cc(C(c3ccc(O)c(C(=O)O)c3)c3ccc(O)c(C(=O)O)c3)cc(C(=O)O)c2O)ccc1O [compound 2]
- activity against HIV-1 (HIV-1): most active

Structure (SMILES): O=C(O)c1cc(Cc2cc(Cc3ccc(O)c(C(=O)O)c3)c(O)c(C(=O)O)c2)ccc1O [compound 3]
- activity against HIV-1 (HIV-1): most active

Structure (SMILES): O=C(O)c1cc(Cc2cc(Cc3cc(Cc4cc(Cl)c(O)c(C(=O)O)c4)c(O)c(C(=O)O)c3)cc(C(=O)O)c2O)cc(Cl)c1O [compound 8]
- IC50 [3]: 163 µM and ~163 µM
- impact on protein synthesis [1]: did not impact protein synthesis

Structure (SMILES): O=C(O)c1cc(Cc2cc(Cc3cc(Cc4ccc(O)c(C(=O)O)c4)c(O)c(C(=O)O)c3)cc(C(=O)O)c2O)ccc1O [compound 9]
- IC50 [3]: 514 µM and ~514 µM
- impact on protein synthesis [1]: did not impact protein synthesis

Structure (SMILES): O=C(O)c1cc(Cc2cc(Cc3cc(Cc4cc(Cc5cc(Cc6cc(Cl)c(O)c(C(=O)O)c6)c(O)c(C(=O)O)c5)c(O)c(C(=O)O)c4)cc(C(=O)O)c3O)cc(C(=O)O)c2O)cc(Cl)c1O [compound 11]
- antiviral properties (hCoV-OC43): modest activity
- Kd (yeast 80S ribosomes; 25 °C, fluorescence anisotropy): 0.21 ± 0.02 µM
- affinity (double reciprocal plot) (yeast 80S ribosomes; 25 °C, ligand 1 μM, excitation/emission 305/420 nm): 4.8 × 10 ^6 M^−1
- Kd (yeast 80S ribosomes; purified yeast ribosomes, discussion value): ~0.2 µM
- IC50 [3]: 0.108 µM
- inhibition of translation [1]: ~100%
- inhibition of translation ([1]; signal comparable to background): completely inhibited translation
- EC50 [1]: 28.1 µM
- Kd ([4]; ITC, 25.0 °C, 10 mM sodium phosphate pH 7.4): 1 ± 0.1 µM
- Ka × 10^5 ([4]; ITC, 25.0 °C, 10 mM sodium phosphate pH 7.4, single site model): 9.9 ± 0.5 10^5 M^−1
- TΔS ([4]; ITC, 25.0 °C): -7.1 kcal/mol
- ΔG ([4]; ITC, 25.0 °C): -8.0 kcal/mol
- ΔH ([4]; ITC, 25.0 °C): -15.1 kcal/mol
- TΔS [4, 5]: -7.1 ± 0.2 kcal/mol
- ΔG [4, 5]: -8.0 ± 0.2 kcal/mol
- ΔH [4, 5]: -15.1 ± 0.2 kcal/mol
- stoichiometry n ([4]; ITC, per monomeric unit of ATA (Mw 422.34) or per dichlorohexamer (Mw 956)): 1.0 ±0.0
- ΔΔG ([4]; chlorinated hexamer versus heterogeneous polymeric ATA, HSA binding): 0.4 kcal/mol
